Data as given in patent US20220257636A1, “REDUCTION OF BONE RESORPTION, ESPECIALLY IN CHRONIC JOINT DISEASES” (TECHNISCHE UNIVERSITÄT DARMSTADT, priority 2019, published 2022).
“Also recorded” adds a separate entry of the source. {Cy5} = Cyanine5 fluorescent label

Experiments:
CD14+ monocytes [1] = test: Cytokine mRNA levels by RT-qPCR after stimulation of CD14+ monocytes; format: cell-based, human
Protocol: CD14^+ monocytes were stimulated with sEVs from the synovial fluid of ACPA positive patients with rheumatoid arthritis (4 μg/ml), with miR-574-5p oe sEVs (1 μg/ml) or with ScrC sEVs (1 μg/ml) for 4 hours each. Then the whole RNA was isolated and the mRNA levels of IL-23, IL-8, INFα, IL-1β and TNFα were analyzed with RT-qPCR. These cytokines are known for their influence onto the differentiation of osteoclasts (Amara-sekara D. S., Yun Ii., Kim S., Lee N. and Rho J. (2018). “Regulation of Osteoclast Differentiation by Cytokine Networks.” Immune Netw 18: • 1-18). The sequences of the primer pairs used are shown in the sequence protocol (SEQ ID NOs: 6-7 for INFα, SEQ ID NOs: 8-9 for IL-23, SEQ ID NOs: 10-11 for TNFα, SEQ ID NOs: 12-13 for IL-1β and SEQ ID NOs: 14-15 for IL-8). For the normalization of the cDNA amounts in different samples the levels of β-actin were used (primer pair: SEQ ID NOs: 16-17).

pre-osteoclasts = test: Induction of osteoclast genesis, substances added to pre-osteoclasts; format: cell-based, human; conditions: TLR7/8 agonist added to pre-osteoclasts
Protocol: (§1) After 9 to 12 days the cells were fixed and tested for the osteoclast marker TRAP (tartrate-resistant acid phosphatase). TRAP positive cells which also comprised at least three nuclei were classified as osteoclasts and counted with the light microscope.
(§2) Isolated human CD14^+ monocytes were treated with 1 μg/ml miR-574-5p oe sEVs or ScrC sEVs at different time points of the differentiation (FIG. 8A, 8B, 8C).

TLR8 = biological target: T1, TLR8 (Homo sapiens, UniProt Q9NR97); test: MST (microscale thermophoresis) direct interaction with TLR8; format: binding; conditions: Cy5-labeled miR
T1 sequence (Q9NR97 27-1041): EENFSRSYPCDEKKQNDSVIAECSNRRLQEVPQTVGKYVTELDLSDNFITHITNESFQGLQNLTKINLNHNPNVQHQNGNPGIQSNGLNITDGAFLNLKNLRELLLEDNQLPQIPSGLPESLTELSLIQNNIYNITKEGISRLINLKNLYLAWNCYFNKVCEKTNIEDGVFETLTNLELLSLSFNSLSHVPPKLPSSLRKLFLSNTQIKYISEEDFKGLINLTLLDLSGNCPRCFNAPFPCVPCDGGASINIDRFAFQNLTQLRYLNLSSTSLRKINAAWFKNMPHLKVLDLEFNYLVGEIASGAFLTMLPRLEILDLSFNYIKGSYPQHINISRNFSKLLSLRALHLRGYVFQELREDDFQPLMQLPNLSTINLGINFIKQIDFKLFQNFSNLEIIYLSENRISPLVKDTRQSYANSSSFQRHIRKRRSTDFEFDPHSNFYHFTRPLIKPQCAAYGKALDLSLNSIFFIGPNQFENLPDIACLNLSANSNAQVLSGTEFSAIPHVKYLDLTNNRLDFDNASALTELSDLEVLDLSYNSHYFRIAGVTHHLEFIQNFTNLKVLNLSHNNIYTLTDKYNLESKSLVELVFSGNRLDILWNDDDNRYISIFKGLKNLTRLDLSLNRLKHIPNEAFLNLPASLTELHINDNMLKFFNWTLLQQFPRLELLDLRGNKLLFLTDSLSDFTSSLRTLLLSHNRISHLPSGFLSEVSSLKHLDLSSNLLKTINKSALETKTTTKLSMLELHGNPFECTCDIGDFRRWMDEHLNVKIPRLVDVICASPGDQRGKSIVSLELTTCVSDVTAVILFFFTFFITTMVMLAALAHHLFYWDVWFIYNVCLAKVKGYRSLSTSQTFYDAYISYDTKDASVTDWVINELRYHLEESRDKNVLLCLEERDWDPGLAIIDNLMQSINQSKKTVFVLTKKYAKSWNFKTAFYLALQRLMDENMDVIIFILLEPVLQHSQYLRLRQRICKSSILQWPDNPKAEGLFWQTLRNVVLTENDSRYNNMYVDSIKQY
Text: In the context of the present invention, a direct interaction of miR-574-5p with TLR8 was detected by means of MST (microscale thermophoresis); (Wienken C. J., Baaske P., Rothbauer U., Braun D. and Duhr S. (2010). “Protein-binding assays in biological liquids using microscale thermophoresis.” Nat Commun 1: 100). […] For the MST experiments Cy5-labeled miR-574-5p (SEQ ID NO: 18) and Cy5-labeled miR-16-5p (SEQ ID NO: 19) were used.

CD14+ monocytes [2] = test: Induction of osteoclast genesis (count of TRAP positive multinuclear cells), substances added to CD14+ monocytes; format: cell-based, human
Text: (§3) CD14^+ monocytes were isolated from PMBCs (peripheral blood mononuclear cells) of healthy donors and stimulated with M-CSF (recombinant human macrophage colony-stimulating factor), RANK-L (receptor activator of NF-κB ligand) and different concentrations of the isolated sEVs. With the sEVs isolated from the synovial fluid both freshly isolated monocytes and differentiated M2-like macrophages were stimulated (FIG. 2).
as §1, §2
The influence of the miR-574-5p PNA AntagomiR which was coupled to CPP onto the osteoclast genesis was tested. This scheme has been adapted such that on day 1 the CPP-coupled miR-574-5p PNA AntagomiR (CPP-PNA) was added in concentrations of 10 μM or 20 μM. The negative control was conducted without any addition of CPP-PNA (0 μm CPP-PNA). […] Also for this experiment freshly isolated human monocytes were used. After the completion of the differentiation matured osteoclasts were visualized with the help of histologic staining (detection of tartrate-resistant acid phosphatases, TRAP). Subsequently, multinuclear TRAP positive cells are quantified under a light microscope.

M2-like macrophages = test: Induction of osteoclast genesis (count of TRAP positive multinuclear cells), substances added to M2-like macrophages; format: cell-based, human; conditions: added with miR-574-5p to M2-like macrophages (FIG. 10D)
Text: as §3, §1, §2

[3] = test system: freshly isolated human monocytes
Protocol: The cytotoxicity was tested with an MTT assay in which the eponymous dye MTT (3-(4,5-dimethylthiazol-2-yl)-2,5-diphenyltetrazoliumbromide) is used. As negative control a PNA with a sequence which was not complementary to miR-574-5p and which was also bound to CPP by means of the PEG linker was tested (SEQ ID NO: 30). The CPP-PNA construct of the negative control used can be illustrated as follows (from the N-terminus to the C-terminus): [sequence]-(eg1)-[sequence](K—NH2). The negative control differs from the above-described construct according to the present invention only with respect to the PNA sequence.
The cytotoxicity was tested on freshly isolated human monocytes.

[4] = 10 ng/ml, compared with miR-574-5p oe sEVs (FIGS. 11E and 11F)

In the case of `CCOCc1nc2c(N)nc3ccccc3c2n1CC(C)(C)O` [R848], the “IL-23 mRNA” value (CD14+ monocytes [1]; [4]) is reported as “Comparable results”, the “INFα mRNA” value (CD14+ monocytes [1]; [4]) is reported as “Comparable results” and the osteoclast genesis (pre-osteoclasts) is reported as “no significant increase”.

“miR-574-5p: microRNA, SEQ ID NO: 4; Cy5-labeled form (SEQ ID NO: 18) used for MST (UGAGUGUGUGUGUGUGAGUGUGU; Cy5-labeled form used for MST, label position not given here; listed as Homo sapiens)” was tested, and the Kd (TLR8; read-out: constant of dissociation KD) was 0.0308 ± 0.0052 µM, the “stimulation of the osteoclast genesis” value (CD14+ monocytes [2]; miR-574-5p alone, not in sEVs (FIG. 9)) was “Neither miR-574-5p alone, nor miR-574-5p in the presence of synthetic liposomal vehicles (Lipofectamine® 2000 (Thermo Fisher Scientific, Waltham, USA)) results in a stimulation” and the “stimulation of the osteoclast genesis” value (CD14+ monocytes [2]; miR-574-5p in the presence of synthetic liposomal vehicles (Lipofectamine 2000) (FIG. 9)) was “Neither miR-574-5p alone, nor miR-574-5p in the presence of synthetic liposomal vehicles (Lipofectamine® 2000 (Thermo Fisher Scientific, Waltham, USA)) results in a stimulation”. The “IL-1β mRNA level” value (CD14+ monocytes [1]; any of the conditions tested) was “not influenced”, the “IL-8 mRNA level” value (CD14+ monocytes [1]; any of the conditions tested) was “not influenced” and the “TNFα mRNA level” value (CD14+ monocytes [1]; any of the conditions tested) was “not influenced”.

For “ODN 2087: TLR7/8 inhibitor oligonucleotide, SEQ ID NO: 24, MiltenyiBiotec (TCCTGAGCTTGAAGT; DNA, all phosphorothioate, methylation of C not given here)”, the “effect of inhibitor on the miR-574-5p induced increase of the number of osteoclasts” value (M2-like macrophages) was “nullifies the effect”, the “effect of inhibitor on the R848 effect on the number of osteoclasts” value (CD14+ monocytes [2]; added with R848 (FIGS. 10E and 10F)) was “nullify the effect” and the “effect of inhibitor on the miR-574-5p induced increase of the number of osteoclasts” value (CD14+ monocytes [2]; added with miR-574-5p to CD14+ monocytes (FIG. 10C)) was “nullifies the effect”. For the same compound, the “effect of inhibitor on the induced INFα and IL-23 mRNA increases” value (CD14+ monocytes [1]; added to the stimulation with sEVs or R848) was “nullify the observed effects”.

For “miR-16-5p: microRNA; Cy5-labeled form (SEQ ID NO: 19) used for MST (UAGCAGCACGUAAAUAUUGGCG; RNA, 3' {Cy5}, backbone not given here)”, the “specific interaction with TLR8” value (TLR8) was “specific interaction between TLR8 and miR-16-5p was not shown; also recorded: specific interaction between TLR8 and miR-16-5p was not observed”.

For “GRKKRWFRRRRMKWKK-(eg1)-ctcacacacacacactca(K—CONH2) (PEG linker, C-terminal amide; Cell Penetrating Peptide (CPP); Peptide Nucleic Acid (PNA) AntagomiR) [CPP-coupled miR-574-5p PNA AntagomiR]”, the osteoclast genesis (CD14+ monocytes [2]; added on day 1 at 10 μM or 20 μM, versus 0 μM, TRAP positive multinuclear cells) was “concentration-dependent reduction”, the “cytotoxicity (MTT, viability)” value [3] was “Neither in the case of the negative control (FIG. 13A) nor in the case of miR-574-5p PNA AntagomiR (FIG. 13B) a significant toxicity was observed” and the “viability in comparison to the untreated control” value [3] was “increased viability”.

With “GRKKRWFRRRRMKWKK-(eg1)-gctattaccttaacccag(K—NH2) (GCTATTACCTTAACCCAG; all peptide nucleic acid (PNA); N-terminal cell-penetrating peptide via eg1 linker, C-terminal lysine amide, further chemistry not fully specified) [negative control]” the “cytotoxicity (MTT, viability)” value [3] was “Neither in the case of the negative control (FIG. 13A) nor in the case of miR-574-5p PNA AntagomiR (FIG. 13B) a significant toxicity was observed”.
